Assay results reported in PubChem BioAssay (NCI).
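Step 1: Grow cells in 96-well plates. Step 2: Expose to compound for 48 hours at 5 concentrations. Step 3: Interpolate endpoints linearly; if unreached, use highest concentration. TGI denotes the concentration required for complete inhibition of growth.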

Legend:
Experiment in all cases: NCI tumour cell line growth inhibition, 48 h
[1] = test system: HOP-18 NSCLC
[2] = test system: KM20L2 colon
[3] = test system: M19-MEL melanoma
[4] = test system: HS 578T breast
[5] = test system: DU-145 prostate
[6] = test system: T-47D breast
[7] = test system: MDA-N
[8] = test system: SN12K1 renal
[9] = test system: P388 leukemia
[10] = test system: XF 498 CNS
[11] = test system: SNB-78 CNS
[12] = test system: P388/ADR leukemia
[13] = test system: LXFL 529 NSCLC
[14] = test system: RXF-631 renal

| SMILES | TGI [1] | TGI [2] | TGI [3] | TGI [4] | TGI [5] | TGI [6] | TGI [7] | other results |
| --- | --- | --- | --- | --- | --- | --- | --- | --- |
| C[C@H]1C[C@@H]2[C@H]([C@@H](O)C[C@@]3(C)[C@H]2CC[C@]3(O)C(=O)CO)[C@@]2(C)C=CC(=O)C=C12 | > 100 µM | > 100 µM | > 100 µM |  |  |  |  |  |
| O=C(COc1ccc(Cl)c(Cl)c1)Nc1ccc[n+](Cc2ccc(S(=O)(=O)F)c(Cl)c2)c1 |  |  |  | > 100 µM | > 100 µM | > 100 µM |  |  |
| Cc1ccc(O)c(Cc2nc3ccccc3nc2-c2cccc(Cl)c2)c1 |  |  |  | > 100 µM | > 100 µM | > 100 µM | > 100 µM |  |
| CNC(=O)OCc1nc(SC)n(C)c1CO | > 100 µM | > 100 µM | > 100 µM |  |  |  |  | TGI [8]: > 100 µM; TGI [9]: > 100 µM; TGI [10]: > 100 µM; TGI [11]: > 100 µM; TGI [12]: > 100 µM |
| CC(=O)Oc1ccccc1 |  | > 100 µM | > 100 µM |  |  |  |  | TGI [13]: > 100 µM; TGI [14]: > 100 µM |
| C[n+]1cccc(NC(=O)c2ccc(NC(=O)C34CCC(C(=O)Nc5ccc(C(=O)Nc6ccc[n+](C)c6)cc5)(CC3)CC4)cc2)c1 | > 100 µM | > 100 µM | > 100 µM |  |  |  |  | TGI [11]: > 100 µM; TGI [13]: > 100 µM |
| CC(=O)Nc1ccc2c(c1)/C(=C\c1ccc([N+](C)(C)C)cc1)c1ccccc1-2 |  |  |  | 88.3 µM | > 100 µM | 90.1 µM | > 100 µM |  |
| COc1ccccc1/C=C/c1ccnc2ccccc12 |  |  |  | 38.5 µM | 30.8 µM |  | 26.1 µM |  |
| COc1cc2c(c(OC)c1OC)-c1ccc(OC)c(=O)cc1C(NC(=O)COc1ccccc1)CC2 (stereo unspecified) | > 100 µM | < 0.01 µM | > 100 µM | > 31.6 µM | < 0.01 µM | > 100 µM | < 0.01 µM | TGI [10]: 65.8 µM; TGI [11]: > 100 µM; TGI [13]: > 100 µM; TGI [14]: > 100 µM |
| Cc1ccc2c(c1)SC1=Nc3sc4cc(C)ccc4[n+]3CN12 |  |  |  | 35.5 µM | > 100 µM | 8.75 µM |  |  |
| Cc1c2ccccc2c(C2C3C(=O)N(c4ccc(Br)cc4)C(=O)C3ON2C(C(N)=O)c2ccccc2)c2ccccc12 (stereo unspecified) |  |  |  |  | 26.7 µM | 36.4 µM | 35.1 µM |  |
| COC1/C=C(C)/C=C/C(C)/C=C/C(=O)OC(/C(C)=C/C=C(\C)CNC(=O)[C@H](CO)NC=O)C(C)/C=C/C=C/C(OC)CC/C=C(C)/C=C/C1 (stereo partly specified) |  |  |  | > 1 µM | > 1 µM | > 1 µM |  |  |
| O=C(CSCC(=O)N/N=C/c1ccc2c(c1)OCO2)N/N=C/c1ccc2c(c1)OCO2 |  |  |  | > 100 µM | > 100 µM | > 100 µM |  |  |
| c1ccc2c(CSCc3cccc4ccccc34)cccc2c1 |  |  |  | > 100 µM | > 100 µM | > 100 µM | > 100 µM |  |
| CC(C)(C)[Si](OC1CCOC1=O)(c1ccccc1)c1ccccc1 (stereo unspecified) | 80.9 µM | 35.6 µM | 39.1 µM |  |  |  |  | TGI [10]: 24.2 µM; TGI [11]: > 100 µM; TGI [13]: > 100 µM; TGI [14]: 98.8 µM |
| CCCCc1ccc(N=C(N)N)cc1 |  |  |  | > 100 µM | > 100 µM | > 100 µM | 67 µM |  |
| COc1cc(C(=O)NC2CCc3cc(OC)c(OC)c(OC)c3-c3ccc(OC)c(=O)cc32)cc(OC)c1OC (stereo unspecified) | > 100 µM | 0.326 µM | > 100 µM | > 21.1 µM |  | > 100 µM | 0.0961 µM | TGI [10]: 16 µM; TGI [11]: > 100 µM; TGI [13]: 44.2 µM |
